Experimental findings from PubChem BioAssay AID1996 are described below.

Each structure is given as a SMILES string. In brackets after ≈: the same amount, converted by molar mass.

The conditions of this data set: buffer; pH 7.4; 200.0 µM.
In general, solubility (kinetic) refers to solubility judged after dilution from a stock solution rather than from solid. Take `CC(C)C(NC(=O)c1ccccc1F)C(=O)NCCCn1ccnc1` (stereo unspecified): the kinetic solubility was above 52 µg/mL. As for `COC(=O)[C@H](c1ccccc1Cl)N1CCc2sccc2C1`, the kinetic solubility came to 15.1 µg/mL (≈ 46.9 µM). With `COc1ccc2c(ccc[n+]2CC(=O)c2ccccc2)c1.[Br-]`, the solubility (kinetic) was above 53.7 µg/mL. As for `CCN1CCN(CCC(=O)Nc2cc(OC)cc(OC)c2)CC1`, the figure is 35.2 µg/mL (≈ 110 µM); as for `O=C1CC(Nc2cc(=O)[nH]c(=O)[nH]2)C(=O)N1c1ccccc1Cl` (stereo unspecified), 39.4 µg/mL (≈ 118 µM).

`O=C(O)c1ccc(N=Cc2c(O)ccc3oc4c(c23)CCCC4)cc1`: the kinetic solubility was above 50.3 µg/mL. For the molecule `COc1cc(NC(=O)CN2C(=O)CN(C)C2=O)c(C)cc1[N+](=O)[O-]`, the kinetic solubility is above 50.4 µg/mL.

Consider `Clc1ccc(-c2csc(-c3cccnc3)n2)s1`, for which the solubility (kinetic) amounted to 0.7 µg/mL (≈ 2.51 µM). Molecule `CC(C)=C(NC(=O)c1ccccc1)C(=O)Nc1ccc(C(=O)O)cc1` showed a kinetic solubility above 50.8 µg/mL. As for `COc1cccc2c(Nc3ccccc3C)cc(C)nc12.Cl`, the figure is 40.1 µg/mL.

In turn, `CCOC(=O)c1nc2c(ccc3ccccc32)cc1C` gave a solubility (kinetic) below 0.6 µg/mL.

As for `COc1ccc(/C=C/C(=O)NCCCN2CCOCC2)cc1`, the solubility (kinetic) turned out to be 43.8 µg/mL (≈ 144 µM). The same measure for `COc1cc(OC)cc(C(=O)Nc2cccc3cccnc23)c1`: below 0.3 µg/mL; for `CN(C)C(=O)NC1c2ccccc2-c2ccccc21`: above 37.8 µg/mL; for `CCN(CC)C(=O)Oc1cc(COC)nc(-c2ccccc2)n1`: 39.5 µg/mL (≈ 125 µM).

As to `COc1ccc(C2(C(=O)NCCc3ccccc3)CCCC2)cc1`, the solubility (kinetic) turned out to be 31.1 µg/mL (≈ 96.2 µM). As for `COc1ccccc1/C=N/OC(=O)c1ccc(F)cc1`, the figure is 0.7 µg/mL (≈ 2.56 µM); as for `CCc1cccc(C)c1NS(=O)(=O)Cc1ccccc1`, above 43.4 µg/mL. As for `CCn1ccnc1CN(C)Cc1nc(-c2ccccc2)no1`, the figure is 31.7 µg/mL (≈ 107 µM).

With `CCc1nnc(NC(=O)c2cc(C)nc3ccccc23)s1`, the kinetic solubility is above 44.8 µg/mL. `CCC(C)n1c(C)cc(C(N)=O)c1C` (stereo unspecified) returned a solubility (kinetic) of 26.8 µg/mL (≈ 138 µM). On to `CC(=O)c1c(C)[nH]c(C(=O)Nc2ccc(Cl)cc2F)c1C`, for which the solubility (kinetic) is 0.7 µg/mL (≈ 2.27 µM). As for `Cc1ccc(CC(=O)Nc2nccs2)cc1`, the figure is 29.8 µg/mL (≈ 128 µM). As for `O=C(C=C1NCCN1)c1ccccc1`, the figure is above 28.2 µg/mL; as for `COc1cc2c(cc1OC)C(C)N(S(=O)(=O)c1ccc(C)cc1)CC2` (stereo unspecified), 26.8 µg/mL (≈ 74.1 µM). As for `COc1cccc(C=O)c1OCCN1C(=O)c2ccccc2C1=O`, the figure is 42.6 µg/mL (≈ 131 µM). With `COc1ccc(NC(=O)CNCc2ccc(Cl)cc2)cc1S(=O)(=O)N1CCOCC1.O=C(O)C(=O)O`, the kinetic solubility was above 81.6 µg/mL. In turn, `O=C(NC(=S)Nc1ccccc1Br)C1CCC1` showed a solubility (kinetic) of 7.8 µg/mL (≈ 24.9 µM). In the case of `CCOc1ccccc1C(=O)NC1CCNCC1`, the kinetic solubility was above 37.2 µg/mL. With `O=C(Nc1nnc(C2=COCCO2)o1)c1ccc(F)cc1`, the kinetic solubility was above 43.7 µg/mL. The molecule `CN1CCC2(CC1)N=C(c1ccc(F)cc1)C(=S)N2` returned a kinetic solubility of 39.8 µg/mL (≈ 143 µM).

The molecule `Nc1ccccc1SC1CC(=O)N(c2ccc3c(c2)OCO3)C1=O` (stereo unspecified) gave a kinetic solubility below 0.4 µg/mL. As for `O=c1oc2ccccc2c(N2CCOCC2)c1[N+](=O)[O-]`, the figure is above 41.4 µg/mL. `CCC1Oc2ccc(C)cc2N(CC(=O)NCc2cccs2)C1=O` (stereo unspecified) registered a kinetic solubility of 5.2 µg/mL (≈ 15.1 µM). As for `CCN(CCO)c1ncnc2onc(-c3ccc(F)cc3)c12`, the kinetic solubility is above 45.3 µg/mL.

Take `O=C(COc1ccc(Cl)cc1)Nc1ccc2c(c1)OCO2`: the solubility (kinetic) was below 0.7 µg/mL. Molecule `NC(=O)c1cc(S(=O)(=O)N2CCCCC2)cs1` showed a kinetic solubility above 41.2 µg/mL. On to `O=C1CSC(=S)N1c1cccc(Br)c1`, for which the solubility (kinetic) turned out to be 2.9 µg/mL (≈ 10.1 µM). As for `N#C/C(=C\Nc1ccc(F)c(Cl)c1)S(=O)(=O)c1ccccn1`, the figure is 42 µg/mL (≈ 124 µM); as for `CC(C)CN1CCN(Cc2c[nH]c3ccccc23)CC1CCO` (stereo unspecified), 33.3 µg/mL (≈ 106 µM); as for `COc1ccc(-c2ccccc2)cc1NC(=O)c1cccs1`, 1.2 µg/mL (≈ 3.88 µM).

For the molecule `COC(=O)c1c(N)sc(C(=O)NCCc2ccccc2)c1C`, the solubility (kinetic) is above 47.8 µg/mL. `CCCCOC(=O)c1ccc(NC(=O)C(=O)NCc2ccco2)cc1` showed a solubility (kinetic) below 0.4 µg/mL.

In turn, `Cc1cccc(Nc2nc(-c3ccc(O)c(O)c3)cs2)n1` displayed a kinetic solubility of 4.5 µg/mL (≈ 15 µM).

`CCC(=O)c1cn(CC(=O)Nc2ccccc2F)c2ccccc12` came in with a kinetic solubility of 3.2 µg/mL (≈ 9.87 µM). With `COc1cc(OC)c(C(=O)NC23CC4CC(CC(C4)C2)C3)cc1OC`, the solubility (kinetic) came to 7.1 µg/mL (≈ 20.6 µM). `Cc1ccc2[nH]c(C(=O)N3CCN(c4cccc(Cl)c4)CC3)cc2c1`: the kinetic solubility is below 0.3 µg/mL. The same measure for `Cc1nc(NCCc2ccccc2)sc1C(=O)O`: 38.7 µg/mL (≈ 148 µM).

The molecule `O=S(=O)(c1cccc(F)c1)N1CCN(c2nc(-c3cccnc3)nc3ccccc23)CC1` returned a kinetic solubility of 1.2 µg/mL (≈ 2.67 µM).

In turn, `Cc1nn(CC(=O)N2CCc3ccccc32)c(C)c1S(=O)(=O)NC(C)(C)C` came in with a kinetic solubility above 58.6 µg/mL. Take `O=C(Nc1cc(Cl)ccc1Cl)C1CC(=O)N(c2ccccc2)C1` (stereo unspecified): the solubility (kinetic) came to 1.7 µg/mL (≈ 4.87 µM).
